Measured values: patent US20240041050A1, “CELL PENETRATING PEPTIDE MEDIATED RNA TRANSDUCTION WITHIN INSECT CELLS” (PIONEER HI-BRED INTERNATIONAL, INC., priority 2020, published 2024)
Ends that are not written are not given here.

Legend:
S2 cells = test: CPP-mediated enhancement of Cy3-dsRNA uptake into insect cells; type: cell-based, Drosophila melanogaster
Text: (§1) Sample preparation and analysis methods were based on those previously reported (Jafari et al. (201 4) “Serum stability and physicochemical characterization of a novel amphipathic peptide C6M 1 for siRNA delivery”, PLoS One, 9(5), e97797; and Gillet et al. (2017) “Investigating Engineered Ribonucleoprotein Particles to Improve Oral RNAi Delivery in Crop Insect Pests”, Frontiers in Physiology, 8(256), doi: 10.3389/fphys.2017.00256). Reagents are described in Examples 1 and 2. Nanocomplex samples were prepared in one of several ways, depending on type of CPP, RNA, or assay. For insect cell-based assays with CPP-FAM or CPP·mRNA, increasing amounts of CPP (from 25 μM to 100 μM, in 25 μM increments) were used alone or mixed with […] mRNA in water and incubated at 25° C. for 15 minutes prior to cell treatment. […] Final optimal CPP concentration was assessed by amount of fluorescent signal apparent within cells. […] Final optimal molar ratio selected for cell experiments were determined by increase of the apparent size of the Cy3-dsRNA band on a native agarose gel (FIG. 2A and FIG. 2B), and/or appearance and increase in size of the complex peak detected by a Zetasizer Ultra (Malvern Panalytical, Malvern, United Kingdom) DLS instrument (FIG. 2C). […] Final optimal BAPC1 concentration was assessed by amount of fluorescent signal apparent within cells. […]

Sf9 cells = test: as above; type: cell-based, Spodoptera frugiperda
Text: as §1

[1] = same amount as used in the complexes, no CPP

Substance | fluorescent signal of YFP or Cy3 in single-component treated cells (S2 cells; [1]) | fluorescent signal in single-component treated cells (Sf9 cells; [1]) | internalization of Cy3-dsRNA versus Cy3-dsRNA alone (S2 cells; 17.6 μg BAPC1 and 100 ng Cy3-dsRNA, N/P ratio of 15) | internalization of Cy3-dsRNA versus Cy3-dsRNA alone (Sf9 cells; 5.9 μg BAPC1 and 100 ng Cy3-dsRNA, N/P ratio of 5, 4 hours)
UCCUUGAUAUCCGGUUCGGUA / AGGAACUAUAGGCCAAGCCAU (Cy3 at each 5' end, chemistry not fully specified; one strand is listed 3' to 5') [Cy3-siRNA] | Low or no fluorescent signal | Low or no fluorescent signal |  | 
bis(FLIVI)-K-KKKK; bis(FLIVIGSII)-K-KKKK (chain 1 FLIVIK(FLIVI)KKKK; chain 2 FLIVIGSIIK(FLIVIGSII)KKKK; also: forms branched peptide capsules) [BAPC1] |  |  | increased internalization of labeled dsRNA | Increased internalization of labeled dsRNA
